Assay: Tolerability of mono-ethanolamine on humans
Type: in vivo
Conditions: when used in higher concentrations

SMILES: NCCO [mono-ethanolamine, 2-aminoethanol]
- irritation of eyes and mucus membranes: irritating to the eyes and mucus membranes
